Test results from article PMC3210965 (Chemical research in toxicology, 2011).
≈ marks a conversion by molar mass, not a printed value. Like-named read-outs stand apart in the source and are kept apart here.

Key:
[1] = target: T1, Gpx from bovine erythrocytes (Bos taurus, UniProt P00435); type: biochemical
T1 sequence (P00435 1-205): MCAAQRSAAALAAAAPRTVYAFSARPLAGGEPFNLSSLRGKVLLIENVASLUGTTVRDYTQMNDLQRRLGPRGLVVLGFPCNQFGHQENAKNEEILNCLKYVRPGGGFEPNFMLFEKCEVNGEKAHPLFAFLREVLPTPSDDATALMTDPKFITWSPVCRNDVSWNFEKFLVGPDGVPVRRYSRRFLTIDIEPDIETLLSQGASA

[2] = target: T2, TrxR activity in HeLa cells (Homo sapiens, UniProt Q16881); experiment: cell-based; conditions: for inhibition of cellular TrxR activity: 12 h
T2 sequence (Q16881 1-499 isoform Q16881-5): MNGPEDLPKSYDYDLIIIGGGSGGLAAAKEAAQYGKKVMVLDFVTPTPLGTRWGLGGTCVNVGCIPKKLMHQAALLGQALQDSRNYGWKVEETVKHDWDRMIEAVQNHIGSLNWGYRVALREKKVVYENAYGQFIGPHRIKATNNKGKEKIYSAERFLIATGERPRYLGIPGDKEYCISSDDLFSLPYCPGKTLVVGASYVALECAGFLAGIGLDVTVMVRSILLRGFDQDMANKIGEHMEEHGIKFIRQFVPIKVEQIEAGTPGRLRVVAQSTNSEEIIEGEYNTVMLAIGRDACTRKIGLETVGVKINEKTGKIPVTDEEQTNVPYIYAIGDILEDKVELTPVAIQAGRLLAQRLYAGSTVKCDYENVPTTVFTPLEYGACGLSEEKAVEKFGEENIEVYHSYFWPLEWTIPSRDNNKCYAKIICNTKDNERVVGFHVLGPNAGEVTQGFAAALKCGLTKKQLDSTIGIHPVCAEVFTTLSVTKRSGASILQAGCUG

rat TrxR [3] = target: T3, rat TrxR (Rattus norvegicus, UniProt O89049)
T3 sequence (O89049 1-499): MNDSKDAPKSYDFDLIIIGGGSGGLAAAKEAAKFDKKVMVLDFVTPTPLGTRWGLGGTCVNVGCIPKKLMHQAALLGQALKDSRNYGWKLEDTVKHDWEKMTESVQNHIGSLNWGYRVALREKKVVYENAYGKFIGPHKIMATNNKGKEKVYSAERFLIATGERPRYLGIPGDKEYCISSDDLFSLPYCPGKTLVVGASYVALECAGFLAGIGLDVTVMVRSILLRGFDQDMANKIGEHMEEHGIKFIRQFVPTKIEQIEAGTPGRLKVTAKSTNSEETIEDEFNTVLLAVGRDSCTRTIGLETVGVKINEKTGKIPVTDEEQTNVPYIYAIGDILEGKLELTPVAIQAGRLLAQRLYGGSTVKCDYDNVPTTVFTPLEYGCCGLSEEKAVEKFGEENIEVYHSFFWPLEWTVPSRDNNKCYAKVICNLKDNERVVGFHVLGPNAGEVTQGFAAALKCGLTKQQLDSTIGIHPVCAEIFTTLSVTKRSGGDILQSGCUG

[4] = target: T4, TrxR C-terminus active site Sec and Cys (Rattus norvegicus, UniProt O89049)
T4 sequence (O89049 1-499): T3 sequence (O89049 1-499)

rat TrxR [5] = target: T3, rat TrxR; experiment: biochemical
HeLa = conditions: three day continuous treatment; cited from earlier work
GR = conditions: cited from earlier work
TrxR = conditions: cited from earlier work
HeLa cells = experiment: Cell viability MTS assay; type: cell-based, human; conditions: 2 and 3 μM selenite
[6] = HeLa, read-out: inhibition of cellular TrxR activity

CC1=CC2=C(C)C3(CC3)[C@@](C)(O)C(=O)C2=C1 [AF, acylfulvene]
drug concentration at which an increase in Gpx activity was observed [1]: ≥ 20 µM
inhibition at 0.2 µM [2, 6]: 20%
inhibition at 1 µM [2, 6]: 35%
inhibition at 4 µM [2, 6]: 60%
reversibility of TrxR inhibition (gel filtration) (rat TrxR [3]): irreversible
intensity of BIAM label ([4]; pH 6.5): diminished in intensity
BIAM labeling ([4]; pH 8.5): almost abolished
IC50 (rat TrxR [5]): 7.3 µM
inhibition at 50 µM (rat TrxR [5]; read-out: TrxR activity inhibited within five minutes): > 60%

CC1=C(CO)C2=C(C)C3(CC3)[C@@](C)(O)C(=O)C2=C1 [HMAF, hydroxymethylacylfulvene]
drug concentration at which an increase in Gpx activity was observed [1]: ≥ 2 µM
inhibition of cellular TrxR activity ([2]; HeLa cells, 0.2 μM): 20%
inhibition of cellular TrxR activity ([2]; HeLa cells, 1 μM): 60%
inhibition of cellular TrxR activity ([2]; HeLa cells, 4 μM): eliminated cellular TrxR activity
TrxR activity inhibited within five minutes (rat TrxR [3]; 7.5 μM HMAF, pre-reduced TrxR, 25 °C): over 60%
reversibility of TrxR inhibition (gel filtration) (rat TrxR [3]; 2 h reaction, unbound drug removed by size exclusion column): irreversible
IC50 (rat TrxR [3]; read-out: IC50, inhibition of DTNB reduction activity of TrxR, NADPH-reduced TrxR (80 nM), 2 h at 25 °C): 0.38 µM
intensity of BIAM label ([4]; pH 6.5 (free Sec), 5 μM HMAF): diminished in intensity
BIAM labeling ([4]; pH 8.5 (free Cys and Sec), 25 μM HMAF): almost abolished
IC50, cytotoxicity (HeLa): 0.02 µg/mL (≈ 0.0812 µM)
type of GR inhibition (GR): irreversible

NC(=O)CI [IAA, iodoacetamide]
IC50 ([1]; read-out: IC50, inhibition of Gpx activity): 2400 µM

O=C(O)CCCc1ccc(N(CCCl)CCCl)cc1 [chlorambucil]
IC50, TrxR inhibition (TrxR): micromolar

CC1=C2C(=C[C@@](C)(CO)[C@@H]2O)C(=O)[C@](C)(O)C12CC2 [illudin S, reference compound]
drug concentration at which an increase in Gpx activity was observed [1]: ≥ 1000 µM
effect on Gpx activity [1]: none of the tested drugs caused a decrease in enzyme activity
inhibition at 0.2 µM [2, 6]: 20%
inhibition at 1 µM [2, 6]: 50%
inhibition of TrxR without pre-reduction (rat TrxR [3]): no inhibition was observed
IC50 (rat TrxR [5]): 260 µM

N[C@@H](Cc1ccc(N(CCCl)CCCl)cc1)C(=O)O [melphalan]
IC50, TrxR inhibition (TrxR): micromolar

O=[Se]([O-])[O-].[Na+].[Na+] [selenite, sodium selenite]
cytotoxicity of added selenite (cells detached from culture dish) (HeLa cells): caused cytotoxicity

C[S+]([O-])CCCCN=C=S (stereo not shown) [sulforaphane, reference compound]
effect in preliminary Se plus sulforaphane TrxR co-induction tests ([2]; HeLa cells, data not shown): potentially confounding direct inhibitory properties
